Results on 1 compound are retold here after patent US20070275425A1, “Device and method for analysis of a metabolic malady” (priority 2004, published 2007).

Assay [1] can be described thus: Fasting glucose test of treated ZDF rats. The assay is classed as in vivo, rat. The settings on record: obese ZDF rats, 10 mg/kg oral gavage five times a week for 20 days; untreated group 242.25 (SD 14.58); treated SD 14.29. The protocol:
(§1) Whole blood samples were obtained from a group of four obese ZDF rats treated with an anti-diabetic drug, Rosiglitazone (10 mg/kg), administered by oral gavage five times a week for 20 days and a group of four untreated obese ZDF rats induced with a saline solution administered by oral gavage five times a week for 20 days.
The values of the average number of lipid bodies and average lipid body area correspond to results of a fasting glucose test of the untreated and treated subjects.

For assay [2], the system named is lipid bodies in neutrophil cells of ZDF rats. As to the kind of experiment: Lipid bodies per neutrophil cell of leukocyte samples (SEM) from obese ZDF rats treated with anti-diabetic drug. The settings on record: 10 mg/kg oral gavage five times a week for 20 days. The assay is classed as in vivo, rat. The protocol:
as §1
A whole blood sample was collected in tubes including a solution of heparin. One hour after drawing the whole blood sample from each rat, approximately 75 microliters of whole blood was mixed with 600 microliters of ddH2O and incubated at a temperature of approximately 25° C. for approximately 30 seconds. Then 75 microliters of 10×PBS was added.
Following incubation, the sample was centrifuged at a speed of approximately 1200 rpm for approximately five minutes. Thereafter, resulting supernatant was removed from the leukocyte sample. Approximately 400 microliters of PBS including 0.89 mM calcium and 0.49 mM magnesium was added to the leukocyte sample. The sample was centrifuged again at a speed of approximately 1200 rpm for approximately five minutes. Thereafter, resulting supernatant was removed from the leukocyte sample. Approximately 400 microliters of PBS including 0.89 mM calcium and 0.49 mM magnesium was added to the leukocyte sample. […]

The compound `CN(CCOc1ccc(CC2SC(=O)NC2=O)cc1)c1ccccn1` (stereo not drawn) [Rosiglitazone] gave a fasting glucose in assay [1] of 110.13 mg/dL. In addition, in assay [2] (untreated group 1.04 (SD 0.1), treated SD 0.06), the “average lipid body area per neutrophil cell of a leukocyte sample” value is on record as “approximately 0.65 μm^2”. For the same compound, the “average number of lipid bodies per neutrophil cell of a leukocyte sample” value in assay [2] (untreated group 7.03 (SD 0.83), treated SD 0.24) is reported as “approximately 4.09”.
